{
  "source": "patent EP3294317B1",
  "about": "“ENHANCED ANTIBIOTIC COMPOSITION” (Universitat Autònoma de Barcelona, priority 2015, dated 2016)",
  "key": {"S. maltophilia D457": {"tested_on": "S. maltophilia D457", "experiment": "Colistin broth microdilution MIC with potentiator compounds, resistant clinical isolates (Example 3)", "assay_type": "cell-based, Stenotrophomonas maltophilia", "settings": "MIC in the presence of 1.0% DMSO / MIC in the presence of 0.1 mM compound and 1.0% DMSO, positive = increased susceptibility, 1 = no effect", "protocol": "(§1) The potentiator effect of the compound of the invention and other compounds disclosed herein was tested using colistin sulfate as antibiotic and in combination with the enhancer compounds in front of resistant clinical isolates.\n(§2) Tests were performed to determine the potentiator effect of the compound of the invention and other compounds disclosed herein with multidrug-resistant S. maltophilia and A. baumannii clinical strains as shown in Table 5: TABLE 5\n(§3) For this experiment the potentiator compound was added to a colistin broth microdilution assay at a final concentration of 0.1mM. MICs were determined as described in the Example 1.\n(§4) Colistin minimal inhibitory concentration (MIC), expressed in µg/mL, and the fold increase in bacterial susceptibility to colistin when combined with the potentiator compound (expressed as MIC in the presence of 1.0% DMSO / MIC in the presence of 0.1 mM of each potentiator compound and 1.0% DMSO) are shown in Table 6: […]"}, "S. maltophilia 197": {"tested_on": "S. maltophilia 197", "experiment": "Colistin broth microdilution MIC with potentiator compounds, resistant clinical isolates (Example 3)", "assay_type": "cell-based, Stenotrophomonas maltophilia", "protocol": "as §1, §2, §3, §4"}, "S. maltophilia 257": {"tested_on": "S. maltophilia 257", "experiment": "Colistin broth microdilution MIC with potentiator compounds, resistant clinical isolates (Example 3)", "assay_type": "cell-based, Stenotrophomonas maltophilia", "settings": "MIC in the presence of 1.0% DMSO / MIC in the presence of 0.1 mM compound and 1.0% DMSO, positive = increased susceptibility, 1 = no effect", "protocol": "as §1, §2, §3, §4"}, "S. maltophilia M30": {"tested_on": "S. maltophilia M30", "experiment": "Colistin broth microdilution MIC with potentiator compounds, resistant clinical isolates (Example 3)", "assay_type": "cell-based, Stenotrophomonas maltophilia", "protocol": "as §1, §2, §3, §4"}, "S. maltophilia 53149": {"tested_on": "S. maltophilia 53149", "experiment": "Colistin broth microdilution MIC with potentiator compounds, resistant clinical isolates (Example 3)", "assay_type": "cell-based, Stenotrophomonas maltophilia", "settings": "MIC in the presence of 1.0% DMSO / MIC in the presence of 0.1 mM compound and 1.0% DMSO, positive = increased susceptibility, 1 = no effect", "protocol": "as §1, §2, §3, §4"}, "[1]": {"tested_on": "Escherichia coli ATCC 9637", "experiment": "Colistin broth microdilution MIC with potentiator compounds (Example 1)", "assay_type": "cell-based", "settings": "E. coli ATCC 9637; MIC in the presence of 1.0% DMSO / MIC in the presence of 0.1 mM potentiator compound and 1.0% DMSO; positive = increased, negative = decreased susceptibility, 1 = no effect"}, "S. aureus V8": {"tested_on": "S. aureus V8", "experiment": "Broth microdilution MIC of compound of formula I alone (Example 5)", "assay_type": "cell-based", "settings": "Staphylococcus aureus, ATCC49775, Reference strain, ATCC 49775, read-out: Compound of formula I MIC in the presence of 1.0% DMSO", "protocol": "(§5) The antimicrobial effect of the compound of formula I of the invention was tested in front of specific Gram-positive bacterium, Staphylococcus aureus, an agent usually involved in hospital-acquired infections. For this experiment the S. aureus reference and clinical isolates shown in Table 8 were used, including Methicillin-resistant S. aureus (MRSA): TABLE 8\n(§6) Antimicrobial susceptibility testing of these isolates was performed using the broth microdilution (BMD) method, according to CLSI guidelines (Example 1).\n(§7) Selected compound of formula I was first dissolved in 100% of sterile-filtered dimethyl sulfoxide (DMSO, Sigma, D2438) to 20 mM. 100 µL of bacterial suspension (final OD550nm=0.01) in MHB were added to the compound dilutions in each well (concentration range from 0.2 mM to 3.125 µM), and the final suspension was mixed and incubated without shaking at 37° C for 24 h before developing with 30 µL of a 0.01% aqueous solution of resazurin. For the experiment all bacteria were first grown overnight in CAMHB using CLSI recommended incubation conditions.\n(§8) The compound MIC, expressed in mM, was defined as the lowest concentration of compound at which no visible growth was obtained."}, "S. aureus RN6390": {"tested_on": "S. aureus RN6390", "experiment": "Broth microdilution MIC of compound of formula I alone (Example 5)", "assay_type": "cell-based", "settings": "Staphylococcus aureus, RN6390, read-out: Compound of formula I MIC in the presence of 1.0% DMSO", "protocol": "as §5, §6, §7, §8"}, "S. aureus RN6911": {"tested_on": "S. aureus RN6911", "experiment": "Broth microdilution MIC of compound of formula I alone (Example 5)", "assay_type": "cell-based", "settings": "Staphylococcus aureus, RN6911, read-out: Compound of formula I MIC in the presence of 1.0% DMSO", "protocol": "as §5, §6, §7, §8"}, "S. aureus SA0003": {"tested_on": "S. aureus SA0003", "experiment": "Broth microdilution MIC of compound of formula I alone (Example 5)", "assay_type": "cell-based", "settings": "Staphylococcus aureus, Clinical strain, (resistant to penicillin), read-out: Compound of formula I MIC in the presence of 1.0% DMSO", "protocol": "as §5, §6, §7, §8"}, "S. aureus SA0004": {"tested_on": "S. aureus SA0004", "experiment": "Broth microdilution MIC of compound of formula I alone (Example 5)", "assay_type": "cell-based", "settings": "Staphylococcus aureus, Clinical strain, (MRSA, and resistant to ciprofloxacin and cloxacillin), read-out: Compound of formula I MIC in the presence of 1.0% DMSO", "protocol": "as §5, §6, §7, §8"}, "S. aureus SA0002": {"tested_on": "S. aureus SA0002", "experiment": "Broth microdilution MIC of compound of formula I alone (Example 5)", "assay_type": "cell-based", "settings": "Staphylococcus aureus, Clinical strain, (resistant to penicillin), read-out: Compound of formula I MIC in the presence of 1.0% DMSO", "protocol": "as §5, §6, §7, §8"}, "S. aureus Seatle 1945": {"tested_on": "S. aureus Seatle 1945", "experiment": "Broth microdilution MIC of compound of formula I alone (Example 5)", "assay_type": "cell-based", "settings": "Staphylococcus aureus, ATCC25923, Reference strain, ATCC 25923, read-out: Compound of formula I MIC in the presence of 1.0% DMSO", "protocol": "as §5, §6, §7, §8"}, "S. aureus RN4220": {"tested_on": "S. aureus RN4220", "experiment": "Broth microdilution MIC of compound of formula I alone (Example 5)", "assay_type": "cell-based", "settings": "Staphylococcus aureus, RN4220, read-out: Compound of formula I MIC in the presence of 1.0% DMSO", "protocol": "as §5, §6, §7, §8"}, "S. aureus Newman": {"tested_on": "S. aureus Newman", "experiment": "Broth microdilution MIC of compound of formula I alone (Example 5)", "assay_type": "cell-based", "settings": "Staphylococcus aureus, NBRC102137 / NEWMAN, Reference strain, NBRC 102137, read-out: Compound of formula I MIC in the presence of 1.0% DMSO", "protocol": "as §5, §6, §7, §8"}, "S. aureus F-182": {"tested_on": "S. aureus F-182", "experiment": "Broth microdilution MIC of compound of formula I alone (Example 5)", "assay_type": "cell-based", "settings": "Staphylococcus aureus, ATCC43300, Reference strain, ATCC 43300 (CLSI standard), read-out: Compound of formula I MIC in the presence of 1.0% DMSO", "protocol": "as §5, §6, §7, §8"}, "S. aureus SA0001": {"tested_on": "S. aureus SA0001", "experiment": "Broth microdilution MIC of compound of formula I alone (Example 5)", "assay_type": "cell-based", "settings": "Staphylococcus aureus, Clinical strain, (resistant to penicillin), read-out: Compound of formula I MIC in the presence of 1.0% DMSO", "protocol": "as §5, §6, §7, §8"}, "S. aureus USA 300": {"tested_on": "S. aureus USA 300", "experiment": "Broth microdilution MIC of compound of formula I alone (Example 5)", "assay_type": "cell-based", "settings": "Staphylococcus aureus, ATCC BAA-1556 / MRSA / USA300, Reference strain, read-out: Compound of formula I MIC in the presence of 1.0% DMSO", "protocol": "as §5, §6, §7, §8"}, "[2]": {"experiment": "Solubility of the stock solution in methanol", "assay_type": "physicochemical", "settings": "organic solvent or mixture; 100% Methanol; fairly soluble, required vigorous vortex", "protocol": "Selected compound of formula I was first dissolved in 100% of Methanol (HPLC Gradient Grade CHROMASOLV. Sigma, 34885-1L-R) to 10 mM. The compound was fairly soluble in methanol up to 10 mM and required vigorous vortex."}, "[3]": {"tested_on": "Stenotrophomonas maltophilia ATCC 13637", "experiment": "Colistin broth microdilution MIC with potentiator compounds (Example 1)", "assay_type": "cell-based", "settings": "S. maltophilia ATCC 13637; MIC in the presence of 1.0% DMSO / MIC in the presence of 0.1 mM potentiator compound and 1.0% DMSO; positive = increased, negative = decreased susceptibility, 1 = no effect"}, "[4]": {"settings": "MIC in the presence of 1.0% DMSO / MIC in the presence of 0.1 mM compound and 1.0% DMSO, positive = increased susceptibility, 1 = no effect"}},
  "data": [
    {"smiles": "CN(C)CCNC(=O)c1cccc(CNC(=O)Nc2ccc3c(c2)Cc2ccccc2-3)c1", "note": "[I, N-[2-(dimethylamino)ethyl]-3-[(9H-fluoren-2-ylcarbamoylamino)methyl]benzamide]", "values": [
      {"measurement": "Fold increase in bacterial susceptibility to colistin", "setting": "S. maltophilia D457", "value": "+2 fold"},
      {"measurement": "Colistin susceptibility category according to the CLSI criteria in the presence of the compound", "setting": "S. maltophilia 197; 0.1 mM compound", "value": "become sensitive to colistin"},
      {"measurement": "Fold increase in bacterial susceptibility to colistin", "setting": "S. maltophilia 197; [4]", "value": "+32 fold"},
      {"measurement": "Fold increase in bacterial susceptibility to colistin", "setting": "S. maltophilia 257", "value": "+4 fold"},
      {"measurement": "Colistin susceptibility category according to the CLSI criteria in the presence of the compound", "setting": "S. maltophilia M30; 0.1 mM compound", "value": "become sensitive to colistin"},
      {"measurement": "Fold increase in bacterial susceptibility to colistin", "setting": "S. maltophilia M30; [4]", "value": "+8 fold"},
      {"measurement": "Fold increase in bacterial susceptibility to colistin", "setting": "S. maltophilia 53149", "value": "+4 fold"},
      {"measurement": "Fold increase in bacterial susceptibility to colistin", "setting": "[1]", "value": "+2 fold"},
      {"measurement": "MIC", "setting": "S. aureus V8", "value": 200, "unit": "µM"},
      {"measurement": "MIC", "setting": "S. aureus RN6390", "value": 200, "unit": "µM"},
      {"measurement": "MIC", "setting": "S. aureus RN6911", "value": 200, "unit": "µM"},
      {"measurement": "MIC", "setting": "S. aureus SA0003", "value": 100, "unit": "µM"},
      {"measurement": "MIC", "setting": "S. aureus SA0004", "value": 200, "unit": "µM"},
      {"measurement": "MIC", "setting": "S. aureus SA0002", "value": 100, "unit": "µM"},
      {"measurement": "MIC", "setting": "S. aureus Seatle 1945", "value": 200, "unit": "µM"},
      {"measurement": "MIC", "setting": "S. aureus RN4220", "value": 200, "unit": "µM"},
      {"measurement": "MIC", "setting": "S. aureus Newman", "value": 200, "unit": "µM"},
      {"measurement": "MIC", "setting": "S. aureus F-182", "value": 200, "unit": "µM"},
      {"measurement": "MIC", "setting": "S. aureus SA0001", "value": 200, "unit": "µM"},
      {"measurement": "MIC", "setting": "S. aureus USA 300", "value": 200, "unit": "µM"},
      {"measurement": "solubility", "setting": "[2]", "value": "≤ 10", "unit": "mM"},
      {"measurement": "Fold increase in bacterial susceptibility to colistin", "setting": "[3]", "value": "+64 fold"}
    ]}
  ]
}
